From patent publication US20130079370A1, “Method for the Inhibition of Deubiquitinating Activity” (priority 2011, published 2013) come the findings set out here.

The test system of one series is MCF7 cells. In words: Microarray based gene expression analysis, chaperone genes. In kind it is cell-based. Also on record: key to Expression value HSPA4L / Expression value DNAJB1 / Expression value HSPD1 / Expression value DNAJB4 / Expression value HSPA1B / Expression value HSPH1 / Expression value HSPA4 / Expression value DNAJB9 / Expression value DNAJA1 / Expression value HSPA1A / Expression value HSPA6 / Expression value DNAJA4: MAS5-normalized array expression, arbitrary units. How it is done:
The microarray based gene expression analysis and the Connectivity Map (CMAP) analysis was performed as previously described (40). Briefly, MCF7 cells were exposed to b-AP15 (1 μM, 6 h) or vehicle (0.1% DMSO, 6 h). RNA was isolated (RNeasy miniprep kit, Qiagen) followed by quality control, labelling and hybridization to Genome U133 Plus 2.0 arrays (Affymetrix Inc). Raw data was normalized using MasS (Affymetrix Inc.) and rank ordered. For selection of the 30 most induced (up tags) and the 30 most suppressed (down tags) transcripts the following criteria were used: Up tags, present call and expression over 300 arbitrary in the b-AP15 experiment; Down tags, present call after both b-AP15 and vehicle treatment, and expression over 300 arbitrary units in the vehicle experiment. For CMAP compatibility only tags (i.e. probes) present on HG U133A were used. Raw and normalized expression data have been deposited at Gene Expression Omnibus (http://www.ncbi.nlm. nih.gov/geo/) with accession number GSE24150.
Expression of chaperone genes observed in bAP15-treated cells (Table 1) is indicative of induction of a proteotoxic response.

Series [1] deals with HTC-116, hTERT-RPE1 and PBMC. In words: Cytotoxic activity, FMCA method. In kind it is cell-based. The following applies: 72 h. On the procedure:
For the FMCA assay cells were seeded in the drug-prepared 384-well plates using the pipetting robot Precision 2000 (Bio-Tek Instruments Inc., Winooski, Vt.). The plates were incubated for 72 h and then transferred to an integrated HTS SAIGAN Core System consisting of an ORCA robot (Beckman Coulter) with CO2 incubator (Cytomat 2C, Kendro, Sollentuna, Sweden), dispenser module (Multidrop 384, Titertek, Huntsville, Ala.), washer module (ELx 405, Bio-Tek Instruments Inc), delidding station, plate hotels, barcode reader (Beckman Coulter), liquid handler (Biomek 2000, Beckman Coulter) and a multipurpose reader (FLUOstar Optima, BMG Labtech GmbH, Offenburg, Germany) for automated FMCA. Survival index (SI) is defined as the fluorescence of test wells in percentage of controls with blank values subtracted.
HCT-116 cells were treated with increasing concentrations of b-AP15 for 24 h and the levels of apoptosis were determined by measuring the levels of caspase cleaved cytokeratin-18 (CK18) by ELISA assay (FIG. 6a). HCT-116 cells were treated with increasing concentrations of b-AP15 for 48 h). Cell viability was determined by acid-phosphatase activity assay. […] IC50 was determined from log concentration/effect curves in Graph Pad Prism (GraphPad Software Inc. CA, USA) using non-linear regression analysis (four parameter model with variable Hill slope) (FIGS. 6e, 6f). […]

On to `C=CC(=O)N1C/C(=C\c2ccc([N+](=O)[O-])cc2)C(=O)/C(=C/c2ccc([N+](=O)[O-])cc2)C1` [b-AP15, (3E,5E)-3,5-bis[(4-nitrophenyl)methylidene]-1-(prop-2-enoyl)piperidin-4-one], for which the “Expression value HSPA6” value in the series on MCF7 cells (probe set 117_at, MCF7 cells, 1 μM, 6 h) is 24149. Moreover, the “Expression value DNAJB1” value with MCF7 cells (probe set 200666_s_at, MCF7 cells, 1 μM, 6 h) is 33900. Also, the “Fold change DNAJB1” value in the series with MCF7 cells (probe set 200666_s_at, b-AP15 vs vehicle) was 6. Also, in the series on MCF7 cells (probe set 200800_s_at, MCF7 cells, 1 μM, 6 h), the “Expression value HSPA1A” value was 57478. Further, the “Fold change HSPA1A” value in the series on MCF7 cells (probe set 200800_s_at, b-AP15 vs vehicle) stood at 4. The “Expression value DNAJA1” value with MCF7 cells (probe set 200880_at, MCF7 cells, 1 μM, 6 h) worked out at 19970. In the series with MCF7 cells (probe set 200880_at, b-AP15 vs vehicle), the “Fold change DNAJA1” value is given as 4. Moreover, in the series with MCF7 cells (probe set 202581_at, MCF7 cells, 1 μM, 6 h), the “Expression value HSPA1B” value was 31068. For the same molecule, the “Fold change HSPA1B” value in the series with MCF7 cells (probe set 202581_at, b-AP15 vs vehicle) was 5. In addition, the “Expression value DNAJB9” value with MCF7 cells (probe set 202843_at, MCF7 cells, 1 μM, 6 h) was determined as 1879. Also, the “Fold change DNAJB9” value in the series on MCF7 cells (probe set 202843_at, b-AP15 vs vehicle) is recorded as 4. For the same molecule, the “Expression value DNAJB4” value stood at 1955 with MCF7 cells (probe set 203810_at, MCF7 cells, 1 μM, 6 h) and 960 in the series on MCF7 cells (probe set 203811_s_at, MCF7 cells, 1 μM, 6 h). Moreover, the “Fold change DNAJB4” value in the series with MCF7 cells (probe set 203811_s_at, b-AP15 vs vehicle) is recorded as 5. Also, in the series with MCF7 cells (probe set 205543_at, MCF7 cells, 1 μM, 6 h), the “Expression value HSPA4L” value is on record as 5452. In addition, the “Expression value HSPH1” value in the series on MCF7 cells (probe set 206976_s_at, MCF7 cells, 1 μM, 6 h) came out at 40974. For the same molecule, the “Fold change HSPH1” value in the series on MCF7 cells (probe set 206976_s_at, b-AP15 vs vehicle) amounted to 5. Besides, in the series on MCF7 cells (probe set 211016_x_at, MCF7 cells, 1 μM, 6 h), the “Expression value HSPA4” value came out at 1803. Moreover, the “Fold change HSPA4” value in the series with MCF7 cells (probe set 211016_x_at, b-AP15 vs vehicle) is reported as 4. Also, the “Expression value DNAJA4” value in the series with MCF7 cells (probe set 225061_at, MCF7 cells, 1 μM, 6 h) is 21103. Further, the “Fold change DNAJA4” value in the series on MCF7 cells (probe set 225061_at, b-AP15 vs vehicle) turned out to be 30. Further, the “Expression value HSPD1” value in the series on MCF7 cells (probe set 241716_at, MCF7 cells, 1 μM, 6 h) is 487. In the series with MCF7 cells (probe set 241716_at, b-AP15 vs vehicle), the “Fold change HSPD1” value is 6. The “cytotoxic activity, tumor versus normal cell types” value in series [1] is “more toxic to the colon carcinoma cell line HTC-116 than to immortalized retinal pigment epithelial cells (hTERT-RPE1) and peripheral blood mononuclear cells (PBMC)”.
